Data published in patent US11236102B2, “Oxabicycloheptane prodrugs” (Lixte Biotechnology, Inc., priority 2015, dated 2022).
pIC50: −log10 of the molar value.

Target: protein phosphatase PP2A (Homo sapiens, UniProt P67775)
Test: Inhibition of purified protein phosphatase PP2A
Format: biochemical
Protocol: In vivo, endothall has a longer half-life that LB-100 on the order of 6 hours compared to about 1 hour or less for LB-100. […] A half-life of several hours of activity is clinically more desirable that much shorter durations. Modification of substituents of LB-100 provide opportunities to further enhance the clinical usefulness of LB-100 by for example improving oral absorption, uptake into specific organs bearing the disease process, for example, the brain, and further modifying the rate of conversion for effective delivery of parent compound and/or endothall to tissue.

Sequence of protein phosphatase PP2A (P67775 whole entry): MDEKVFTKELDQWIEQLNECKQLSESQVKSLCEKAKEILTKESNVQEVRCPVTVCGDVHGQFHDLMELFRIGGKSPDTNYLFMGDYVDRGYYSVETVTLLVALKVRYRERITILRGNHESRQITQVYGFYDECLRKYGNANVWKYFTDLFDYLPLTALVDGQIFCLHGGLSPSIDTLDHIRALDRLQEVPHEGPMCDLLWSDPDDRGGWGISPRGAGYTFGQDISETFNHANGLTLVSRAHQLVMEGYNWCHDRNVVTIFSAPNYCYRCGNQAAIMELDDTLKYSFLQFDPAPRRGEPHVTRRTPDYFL

O=C(O)C1C2CCC(O2)C1C(=O)O (stereo not shown) [Endothal, 7-oxabicyclo[2.2.1]heptane-2,3-dicarboxylic acid]
pIC50: ~7.05
